According to article PMC10835127, “Viruses traverse the human proteome through peptide interfaces that can be biomimetically leveraged for drug discovery” (Proceedings of the National Academy of Sciences of the …, 2024):
Where two headings read alike, the source gives them in different places.

Tests used:
HIV1 strain NL4-3 = type: cell-based; conditions: normalized mean of HIV1 replication readout
HCV replicon = type: cell-based; conditions: normalized mean of HCV replicon readout
[1] = test system: F. novicida (strain U112); type: cell-based
influenza A H1N1 virus = conditions: 48 hr post-treatment, A549
EBV = conditions: normalized mean of EBV replication readout

## CPEP135: peptide of the viral peptide library; sequence page not shown (KGHRGSHTMNGH)
HIV1 strain NL4-3
  HIV1 Norm MEAN: 0.5949
HCV replicon
  HCV Norm MEAN: 0.5732
[1]
  Francisella novicida Norm AUC: 1.216
Influenza A H1N1 virus; 200 µM peptide
  Neuraminidase activity normalized to vehicle: 0,865
Influenza A H1N1 virus; 0,823 µM peptide
  Neuraminidase activity normalized to vehicle: 0,9322
Influenza A H1N1 virus; 22,2 µM peptide
  Neuraminidase activity normalized to vehicle: 0,9598
Influenza A H1N1 virus; 2,4691 µM peptide
  Neuraminidase activity normalized to vehicle: 0,9359
Influenza A H1N1 virus; 7,4074 µM peptide
  Neuraminidase activity normalized to vehicle: 0,8333
Influenza A H1N1 virus; 66,6667 µM peptide
  Neuraminidase activity normalized to vehicle: 0,9822
EBV
  EBV Norm MEAN: 0.8556

## SLQYLALAALITPKK [CPEP46]
HIV1 strain NL4-3; peptide screen
  HIV1 Norm MEAN: 2.169
HCV replicon; peptide screen
  HCV Norm MEAN: 0.6647
[1]
  Francisella novicida Norm AUC: 0.3644
Influenza A H1N1 virus; 200 µM peptide
  Neuraminidase activity normalized to vehicle: 0,1529
Influenza A H1N1 virus; 0,823 µM peptide
  Neuraminidase activity normalized to vehicle: 0,9309
Influenza A H1N1 virus; 22,2 µM peptide
  Neuraminidase activity normalized to vehicle: 0,9118
Influenza A H1N1 virus; 2,4691 µM peptide
  Neuraminidase activity normalized to vehicle: 1,043
Influenza A H1N1 virus; 7,4074 µM peptide
  Neuraminidase activity normalized to vehicle: 1,0188
Influenza A H1N1 virus; 66,6667 µM peptide
  Neuraminidase activity normalized to vehicle: 0,8482
EBV; peptide screen
  EBV Norm MEAN: 0.9835

## TGGER [CPEP30]
HIV1 strain NL4-3
  HIV1 Norm MEAN: 1.255
HCV replicon
  HCV Norm MEAN: 0.2042
[1]
  Francisella novicida Norm AUC: 0.8411
Influenza A H1N1 virus; 200 µM peptide
  Neuraminidase activity normalized to vehicle: 0,9647
Influenza A H1N1 virus; 0,823 µM peptide
  Neuraminidase activity normalized to vehicle: 0,957
Influenza A H1N1 virus; 22,2 µM peptide
  Neuraminidase activity normalized to vehicle: 0,923
Influenza A H1N1 virus; 2,4691 µM peptide
  Neuraminidase activity normalized to vehicle: 0,8714
Influenza A H1N1 virus; 7,4074 µM peptide
  Neuraminidase activity normalized to vehicle: 0,8974
Influenza A H1N1 virus; 66,6667 µM peptide
  Neuraminidase activity normalized to vehicle: 0,9486
EBV
  EBV Norm MEAN: 0.8583

## SEKHFRETEV [CPEP106]
HIV1 strain NL4-3
  HIV1 Norm MEAN: 0.4711
HCV replicon
  HCV Norm MEAN: 1.4
[1]
  Francisella novicida Norm AUC: 0.8616
Influenza A H1N1 virus; 200 µM peptide
  Neuraminidase activity normalized to vehicle: 1,1108
Influenza A H1N1 virus; 0,823 µM peptide
  Neuraminidase activity normalized to vehicle: 0,9396
Influenza A H1N1 virus; 22,2 µM peptide
  Neuraminidase activity normalized to vehicle: 1,0803
Influenza A H1N1 virus; 2,4691 µM peptide
  Neuraminidase activity normalized to vehicle: 0,9387
Influenza A H1N1 virus; 7,4074 µM peptide
  Neuraminidase activity normalized to vehicle: 1,0552
Influenza A H1N1 virus; 66,6667 µM peptide
  Neuraminidase activity normalized to vehicle: 1,1055
EBV
  EBV Norm MEAN: 1.282

## CPEP61: peptide of the viral peptide library; sequence page not shown (KRRKSGAKRR)
HIV1 strain NL4-3
  HIV1 Norm MEAN: 1.461
HCV replicon
  HCV Norm MEAN: 0.1619
[1]
  Francisella novicida Norm AUC: 0.6493
Influenza A H1N1 virus; 200 µM peptide
  Neuraminidase activity normalized to vehicle: 0,867
Influenza A H1N1 virus; 0,823 µM peptide
  Neuraminidase activity normalized to vehicle: 1,0166
Influenza A H1N1 virus; 22,2 µM peptide
  Neuraminidase activity normalized to vehicle: 1,0577
Influenza A H1N1 virus; 2,4691 µM peptide
  Neuraminidase activity normalized to vehicle: 1,0813
Influenza A H1N1 virus; 7,4074 µM peptide
  Neuraminidase activity normalized to vehicle: 0,9769
Influenza A H1N1 virus; 66,6667 µM peptide
  Neuraminidase activity normalized to vehicle: 1,1022
EBV
  EBV Norm MEAN: 3.372

## PVHAGPIAP [CPEP87]
HIV1 strain NL4-3
  HIV1 Norm MEAN: 0.4
HCV replicon
  HCV Norm MEAN: 0.2137
[1]
  Francisella novicida Norm AUC: 1.084
Influenza A H1N1 virus; 200 µM peptide
  Neuraminidase activity normalized to vehicle: 0,6355
Influenza A H1N1 virus; 0,823 µM peptide
  Neuraminidase activity normalized to vehicle: 1,0155
Influenza A H1N1 virus; 22,2 µM peptide
  Neuraminidase activity normalized to vehicle: 0,8043
Influenza A H1N1 virus; 2,4691 µM peptide
  Neuraminidase activity normalized to vehicle: 0,8845
Influenza A H1N1 virus; 7,4074 µM peptide
  Neuraminidase activity normalized to vehicle: 0,906
Influenza A H1N1 virus; 66,6667 µM peptide
  Neuraminidase activity normalized to vehicle: 0,7025
EBV
  EBV Norm MEAN: 0.6567

## LGNIKGILGKKDKDG [CPEP51]
HIV1 strain NL4-3; peptide screen
  HIV1 Norm MEAN: 0.5462
HCV replicon; peptide screen
  HCV Norm MEAN: 0.7895
[1]
  Francisella novicida Norm AUC: 1.389
Influenza A H1N1 virus; 200 µM peptide
  Neuraminidase activity normalized to vehicle: 1,0387
Influenza A H1N1 virus; 0,823 µM peptide
  Neuraminidase activity normalized to vehicle: 0,8902
Influenza A H1N1 virus; 22,2 µM peptide
  Neuraminidase activity normalized to vehicle: 0,9184
Influenza A H1N1 virus; 2,4691 µM peptide
  Neuraminidase activity normalized to vehicle: 0,9673
Influenza A H1N1 virus; 7,4074 µM peptide
  Neuraminidase activity normalized to vehicle: 0,9421
Influenza A H1N1 virus; 66,6667 µM peptide
  Neuraminidase activity normalized to vehicle: 1,0486
EBV; peptide screen
  EBV Norm MEAN: 0.7752

## RRRETQV [CPEP148]
HIV1 strain NL4-3
  HIV1 Norm MEAN: 0.7674
HCV replicon
  HCV Norm MEAN: 0.1353
[1]
  Francisella novicida Norm AUC: 0.7414
Influenza A H1N1 virus; 200 µM peptide
  Neuraminidase activity normalized to vehicle: 0,7433
Influenza A H1N1 virus; 0,823 µM peptide
  Neuraminidase activity normalized to vehicle: 0,8071
Influenza A H1N1 virus; 22,2 µM peptide
  Neuraminidase activity normalized to vehicle: 0,8272
Influenza A H1N1 virus; 2,4691 µM peptide
  Neuraminidase activity normalized to vehicle: 0,7477
Influenza A H1N1 virus; 7,4074 µM peptide
  Neuraminidase activity normalized to vehicle: 0,8788
Influenza A H1N1 virus; 66,6667 µM peptide
  Neuraminidase activity normalized to vehicle: 0,7757
EBV
  EBV Norm MEAN: 1.54

## PLDLS [CPEP54]
HIV1 strain NL4-3
  HIV1 Norm MEAN: 1.112
HCV replicon
  HCV Norm MEAN: 0.1712
[1]
  Francisella novicida Norm AUC: 0.4272
Influenza A H1N1 virus; 200 µM peptide
  Neuraminidase activity normalized to vehicle: 1,1329
Influenza A H1N1 virus; 0,823 µM peptide
  Neuraminidase activity normalized to vehicle: 1,0199
Influenza A H1N1 virus; 22,2 µM peptide
  Neuraminidase activity normalized to vehicle: 0,844
Influenza A H1N1 virus; 2,4691 µM peptide
  Neuraminidase activity normalized to vehicle: 1,1627
Influenza A H1N1 virus; 7,4074 µM peptide
  Neuraminidase activity normalized to vehicle: 0,6425
Influenza A H1N1 virus; 66,6667 µM peptide
  Neuraminidase activity normalized to vehicle: 1,0456
EBV
  EBV Norm MEAN: 1.129

## CMSCCRSSRTRRETQL [CPEP57]
HIV1 strain NL4-3; peptide screen
  HIV1 Norm MEAN: 1.032
HCV replicon; peptide screen
  HCV Norm MEAN: 0.7555
[1]
  Francisella novicida Norm AUC: 0.5573
Influenza A H1N1 virus; 200 µM peptide
  Neuraminidase activity normalized to vehicle: 0,9828
Influenza A H1N1 virus; 0,823 µM peptide
  Neuraminidase activity normalized to vehicle: 1,0672
Influenza A H1N1 virus; 22,2 µM peptide
  Neuraminidase activity normalized to vehicle: 1,1821
Influenza A H1N1 virus; 2,4691 µM peptide
  Neuraminidase activity normalized to vehicle: 0,702
Influenza A H1N1 virus; 7,4074 µM peptide
  Neuraminidase activity normalized to vehicle: 1,111
Influenza A H1N1 virus; 66,6667 µM peptide
  Neuraminidase activity normalized to vehicle: 0,9599
EBV; peptide screen
  EBV Norm MEAN: 0.8928
